Experimental data published in patent publication US11072632B2, “Inhibitors of 17β-HSD1, 17β-HSD3 and 17β-HSD10” (UNIVERSITÉ LAVAL, priority 2011, dated 2021).

Experiments:
human ERα = molecular target: T1, human ERα (Homo sapiens, UniProt P03372); experiment: ERα competitive binding assay (recombinant human ERα); details: FIG. 5B
T1 construct: purified full-length recombinant human ERα (Life Technologies, Grand Island, N.Y.); purchased Life Technologies
T1 sequence (P03372 1-595): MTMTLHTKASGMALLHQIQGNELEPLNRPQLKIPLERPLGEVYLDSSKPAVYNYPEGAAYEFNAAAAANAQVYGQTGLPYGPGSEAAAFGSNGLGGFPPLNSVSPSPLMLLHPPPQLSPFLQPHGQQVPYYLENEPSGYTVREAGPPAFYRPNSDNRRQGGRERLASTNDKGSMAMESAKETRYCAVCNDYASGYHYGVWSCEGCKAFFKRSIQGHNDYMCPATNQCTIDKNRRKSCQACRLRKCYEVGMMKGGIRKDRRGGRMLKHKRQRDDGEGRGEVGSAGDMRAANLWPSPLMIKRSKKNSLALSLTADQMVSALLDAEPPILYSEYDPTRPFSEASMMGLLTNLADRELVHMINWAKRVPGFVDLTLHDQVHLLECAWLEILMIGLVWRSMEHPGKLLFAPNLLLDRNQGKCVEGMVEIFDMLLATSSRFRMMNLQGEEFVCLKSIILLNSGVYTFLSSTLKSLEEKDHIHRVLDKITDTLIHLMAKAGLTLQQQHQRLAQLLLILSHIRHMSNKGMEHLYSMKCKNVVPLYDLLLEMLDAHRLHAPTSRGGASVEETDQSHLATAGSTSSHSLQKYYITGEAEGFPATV
Method: (§1) Non-specific binding was determined by incubation with an excess of cold estradiol (1 μM). After an overnight incubation at 4° C., 100 μl of cold 50% hydroxyapatite slurry was added to bind the receptor/ligand complex. After 15 minutes, 1 mL of wash buffer (40 mM Tris, 1 mM EDTA, 1 mM EGTA, 100 mM KCl, pH 7.4) was added and the tubes were centrifuged at 4500 rpm for 5 minutes at 4° C. The washing step was repeated twice. The radioactivity of the pellet was extracted by incubation with 1 mL of ethanol for 1 h at room temperature.
as §1, with “A competitive binding assay using a purified full-length recombinant human ERα (Life Technologies, Grand Island, N.Y.). […] Non-specific” for “Non-specific”, “E2” for “cold estradiol”, “μL” for “μl”

T-47D cells [1] = experiment: Antiestrogenic activity, E2-induced T-47D proliferation; format: cell-based, human; details: E2 0.1 nM, compound 0.5 μM
Method: (§2) Quantification of cell growth was determined by using CellTiter 96®Aqueous Solution Cell Proliferation Assay (Promega, Nepean, ON, Canada) following the manufacturer's instructions. T-47D cells were resuspended with the medium supplemented with insulin (50 ng/mL) and 5% dextran-coated charcoal treated FBS rather than 10% FBS to remove remaining hormones. Aliquots (100 μL) of the cell suspension were seeded in 96-well plates (3000 cells/well). After 48 h, the medium was changed with a new one containing an appropriate concentration of products to be tested and was replaced every 2 days. Cells have grown either in absence or presence of the compounds for 7 days. To determine the proliferative (estrogenic) activity, the estrogen-sensitive T-47D cells were grown in absence (basal cell proliferation was fixed as 100%) or presence of compounds to be tested at 0.5 to 10 μM. The potent estrogen E2 was used as a reference control. […] The cell proliferation without E1±inhibitor (control) was fixed as 100%. To determine the potential antiestrogenic activity of inhibitor Compound V, the T-47D (ER^+) cells were grown in the presence of estrogen E2 (0.1 nM) and pure antiestrogen EM-139 (0.5 μM) or inhibitor Compound V (0.5 μM). The cell proliferation without E2 and tested compounds (control) were fixed as 100%.

T-47D cells [2] = experiment: Inhibition of E1-stimulated T-47D cell proliferation; format: cell-based, human; details: control 100%
Method: as §2

Structure (SMILES)	relative binding affinity (RBA) (human ERα)	antiestrogenic activity (reversal of E2-induced proliferation) (T-47D cells [1])	cell growth, E1-induced (T-47D cells [2]; E1 0.1 nM + inhibitor 2.5 μM)	cell growth, E1-induced (T-47D cells [2]; E1 0.1 nM + inhibitor 5 μM)
C[C@]12CC[C@@H]3c4ccc(O)cc4CC[C@H]3[C@@H]1C[C@H](Cc1cccc(C(N)=O)c1)[C@@H]2O [Compound I, 16β-(m-carbamoylbenzyl)estradiol, reference compound]	1.5%	–	–	–
C[C@]12CC[C@@H]3c4ccc(CCBr)cc4CC[C@H]3[C@@H]1C[C@H](Cc1cccc(C(N)=O)c1)[C@@H]2O [Compound V, 3-{[(16β,17β)-3-(2-bromoethyl)-17-hydroxyestra-1(10),2,4-trien-16-yl]methyl}benzamide]	–	does not reverse the proliferative effect	156%	125%
